# Assay results taken from paper PMC10947113, “A Bivalent Activatable Fluorescent Probe for Screening and Intravital Imaging of Chemotherapy‐Induced Cancer Cell Death” (Angewandte Chemie (Weinheim an Der Bergstrasse, Germany), 2021).
# Starred links: 1 amine or outer side, 2 acyl side, 3 side chain; linkers in the order of their positions; H or OH if unused. Non-standard residues stand in square brackets, D forms with d. Residues, ends and D or L forms follow the SMILES beside them. X1 = CC1=CC(C)=[N+]2C1=C(c1cccc(-c3[nH]c4ccccc4c3C[C@H](N[*:1])C(=O)[*:2])c1)c1ccc(-c3ccc(C)s3)n1[B-]2(F)F
# Tests used:
# [1] = system: MDA-MB-231 cells; experiment: Cell viability, TACS MTT cell proliferation assay, MDA-MB-231; type: cell-based, human; conditions: different working concentrations, 3 h, means ± SD (n=5), ns for p>0.05
# Method: (§1) Figure S15. Cell viability experiments (TACS® MTT cell proliferation assay) after incubation of Apotracker Red in breast cancer cell lines (a: MCF7 cells, b: MDA-MB-231 cells) at different concentrations for 3 h. Data presented as means ± SD (n=5). P values obtained from one- way ANOVA using multiple comparisons (ns for p>0.05).
# (§2) Figure S16. Quantification of E GFP+ macrophages in tumours from untreated and cisplatin-treated mice by time- lapse imaging on a spinning disk confocal microscope (λexc: 488 nm). Data presented as means ± SD of 8 random areas in 2- 3 mice per group (untreated or treated with 10 μg g-1 cisplatin for 72 h). […]
# [2] = system: MCF7 cells; experiment: Cell viability, TACS MTT cell proliferation assay, MCF7; type: cell-based, human; conditions: different working concentrations, 3 h, means ± SD (n=5), ns for p>0.05
# Method: as §1, §2
# [3] = Stability analysis in mouse serum; type: in vitro ADME; conditions: 24 h, 37 °C, 500 rpm shaker, 50 μM (method) or 25 μM (Figure S14), CH3CN protein precipitation, HPLC traces and fluorescence emission (exc 520 nm)
# Method: Figure S14. Stability analysis of Apotracker Red in mouse serum. HPLC traces of Apotracker Red (25 μM) after incubation in PBS buffer or mouse serum for 24 h at 37 °C . […]
# fluorescence emission of Apotracker Red before and after incubation in mouse serum and […]
# (1 picture or pasted object on this page, not shown here) […]
# r.t., followed by separation from erythrocytes by centrifugation for 10 min, 2, 000 g at r.t. Sera were transferred into new tubes and stored at - 20°C until use. 50 μM Apotracker Red in PBS or in serum were incubated fo r 24 h at 37 °C on a vertical shaker at 500 rpm . A s control s, seru m without peptide and freshly aliquoted 50 μM Apotracker Red in mouse serum were used.
# Fluorescence spectra were recorded after excitation at 520 nm. For HPLC measurements, proteins were precipitated by addition of CH3CN and centrifugation at 300 g fo r 5 m in a t r.t. and the resulting supernatants were injected.
# Lipid layer assays . […] The limit of detection (LoD) of Apotracker Red for PtdSer was determined by fluorescence titration of serial dilutions of Pt dSer layers after incubation with Apotracker Red (1 μM, PBS) at 25 °C for 40 min. The LoD was calculated using the equation LoD = (3 × σ)/k, where σ is the standard deviation of blank solutions and k is the slope of the linear regression fit. Data was recorded on Cytation 3 (exc: 530 nm). […]
smiles,measurement,setting,value
CC1=CC(C)=[N+]2C1=C(c1cccc(-c3[nH]c4ccccc4c3C[C@@H]3NC(=O)[C@H](Cc4ccccc4)NC(=O)[C@H](Cc4c[nH]c5ccccc45)NC(=O)[C@H](CCCCN)NC(=O)[C@H](CCCCN)NC(=O)[C@H](CCCNC(=N)N)NC(=O)CNC3=O)c1)c1ccc(-c3ccc(C)s3)n1[B-]2(F)F [Apotracker Red] (cyclo(F[X1]GRKKW)),"cell toxicity (MTT cell viability), MDA-MB-231",[1],did not cause cell toxicity
same,"cell toxicity (MTT cell viability), MCF7",[2],did not cause cell toxicity
same,proteolytic stability in mouse serum,[3],good proteolytic stability for up to 24 h
